# Experimental data reported in patent US20230114728A1 (Venatorx Pharmaceuticals, Inc., priority 2019, published 2023).
# Like-named read-outs stand apart in the source and are kept apart here.
# Tests used:
# Experiment in all cases: Broth microdilution MIC in iron-depleted CAMHB (IDM)
# Type in all cases: cell-based
# [1] = test system: P. aeruginosa (ΔmexAB-oprM); settings: Pseudomonas aeruginosa, read-out: Minimum Inhibitory Concentration, P. aeruginosa ΔmexAB-OprM
# In short: (§1)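 CLSI broth microdilution in Chelex-treated cation-adjusted Mueller-Hinton broth, refortified with Ca, Mg and 10 μM ZnSO4, pH 7.3. Inoculum 2-8×10^5 CFU/mL; 37 °C for 16-20 h (Pseudomonas) or 20-24 h (Acinetobacter). MIC read visually as lowest concentration without growth.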
# [2] = test system: A. baumannii ATCC 17978; settings: Acinetobacter baumannii
# In short: as §1
# [3] = test system: P. aeruginosa ATCC 35151; settings: Pseudomonas aeruginosa, ATCC35151; iron-depleted MHB (IDM); hyper-permeable strain; read-out: Minimum Inhibitory Concentration, P. aeruginosa ATCC 35151
# In short: as §1
# [4] = test system: A. baumannii CDC-0036 OXA-65, and OXA-24; settings: Acinetobacter baumannii, read-out: Minimum Inhibitory Concentration, CDC-0036
# In short: as §1
# [5] = test system: A. baumannii ATCC 19606; settings: Acinetobacter baumannii
# In short: as §1
# [6] = test system: A. baumannii CDC-0083 producing NDM-1, PER-7, OXA-23, and OXA-69; settings: Acinetobacter baumannii, read-out: Minimum Inhibitory Concentration, CDC-0083
# In short: as §1
# [7] = test system: P. aeruginosa CDC-0095 producing OXA-50, and PAO; settings: Pseudomonas aeruginosa, read-out: Minimum Inhibitory Concentration, P. aeruginosa CDC-0095
# In short: as §1
# [8] = test system: A. baumannii IL123 (ABΔ3-ARAEcPore); settings: Acinetobacter baumannii, read-out: Minimum Inhibitory Concentration, IL-2123
# In short: as §1
# [9] = test system: P. aeruginosa ATCC 27853; settings: Pseudomonas aeruginosa
# In short: as §1
# [10] = test system: P. aeruginosa CDC-0090 producing KPC-5, OXA-50, and PAO; settings: Pseudomonas aeruginosa, read-out: Minimum Inhibitory Concentration, P. aeruginosa CDC-0090
# In short: as §1
# [11] = test system: P. aeruginosa CDC-0054 producing VIM-4, OXA-50, and PAO; settings: Pseudomonas aeruginosa, read-out: Minimum Inhibitory Concentration, P. aeruginosa CDC-0054
# In short: as §1
# [12] = test system: A. baumannii CDC-0033 producing NDM-1, and OXA-94; settings: Acinetobacter baumannii, read-out: Minimum Inhibitory Concentration, CDC-0033
# In short: as §1
# [13] = ATCC17978, read-out: Minimum Inhibitory Concentration, ATCC 17978
# [14] = ATCC19606, read-out: Minimum Inhibitory Concentration, ATCC 19606
# [15] = ATCC27853, read-out: Minimum Inhibitory Concentration, P. aeruginosa ATCC 27853
SMILES,MIC [1],"MIC [2, 13]",MIC [3],MIC [4],"MIC [5, 14]",MIC [6],MIC [7],MIC [8],"MIC [9, 15]",MIC [10],MIC [11],MIC [12],"MIC ([2]; ATCC17978, A. baumannii ATCC 17978, iron-depleted MHB (IDM), read-out: Minimum Inhibitory Concentration, ATCC 17978)","MIC ([5]; ATCC19606, A. baumannii ATCC 19606, iron-depleted MHB (IDM), read-out: Minimum Inhibitory Concentration, ATCC 19606)","MIC ([9]; ATCC27853, iron-depleted MHB (IDM), read-out: Minimum Inhibitory Concentration, P. aeruginosa ATCC 27853)"
"CS(=O)(=O)N1CCN(C(=O)N[C@@H](C(=O)N[C@H]2Cc3ccc(F)c(C(=O)O)c3OB2O)c2c(F)cc(O)c(O)c2Cl)C1=O (single isomer, unassigned) [Example 35]",0.25 µg/mL,0.25 µg/mL,0.25 µg/mL,0.5 to 1 µg/mL,0.25 µg/mL,0.25 µg/mL,32 to 64 µg/mL,2 to 4 µg/mL,0.5 to 1 µg/mL,0.5 to 1 µg/mL,0.5 to 1 µg/mL,0.5 to 1 µg/mL,–,–,–
"NCCCN1CCN(C(=O)N[C@@H](C(=O)N[C@H]2Cc3ccc(F)c(C(=O)O)c3OB2O)c2c(F)cc(O)c(O)c2F)C(=O)C1=O (single isomer, unassigned) [Example 41]",0.25 µg/mL,0.25 µg/mL,0.25 µg/mL,2 to 4 µg/mL,0.5 to 1 µg/mL,0.5 to 1 µg/mL,2 to 4 µg/mL,2 to 4 µg/mL,2 to 4 µg/mL,0.25 µg/mL,2 to 4 µg/mL,2 to 4 µg/mL,–,–,–
"O=C(O)c1c(F)ccc2c1OB(O)[C@@H](NC(=O)C(NC(=O)N1CCN(CCBr)C(=O)C1=O)c1c(F)cc(O)c(O)c1F)C2 (stereo partly drawn) [Example 38, (3R)-3-(2-(4-(2-bromoethyl)-2,3-dioxopiperazine-1-carboxamido)-2-(2,6-difluoro-3,4-dihydroxyphenyl)acetamido)-7-fluoro-2-hydroxy-3,4-dihydro-2H-benzo[e][1,2]oxaborinine-8-carboxylic acid]",0.25 µg/mL,0.25 µg/mL,0.25 µg/mL,2 to 4 µg/mL,0.25 µg/mL,0.5 to 1 µg/mL,8 to 16 µg/mL,2 to 4 µg/mL,2 to 4 µg/mL,2 to 4 µg/mL,8 to 16 µg/mL,2 to 4 µg/mL,–,–,–
"O=C(Nc1ccc(O)c(O)c1Cl)NC(C(=O)N[C@H]1Cc2ccc(F)c(C(=O)O)c2OB1O)c1ncc(O)cc1F (stereo partly drawn) [Example 9, (3R)-3-(2-(3-(2-chloro-3,4-dihydroxyphenyl)ureido)-2-(3-fluoro-5-hydroxypyridin-2-yl)acetamido)-7-fluoro-2-hydroxy-3,4-dihydro-2H-benzo[e][1,2]oxaborinine-8-carboxylic acid]",0.5 to 1 µg/mL,32 to 64 µg/mL,0.25 µg/mL,32 to 64 µg/mL,32 to 64 µg/mL,32 to 64 µg/mL,32 to 64 µg/mL,32 to 64 µg/mL,8 to 16 µg/mL,32 to 64 µg/mL,32 to 64 µg/mL,32 to 64 µg/mL,–,–,–
"NCCCN1CCN(C(=O)N[C@H](C(=O)N[C@H]2Cc3ccc(F)c(C(=O)O)c3OB2O)c2ccc(O)c(O)c2Cl)C(=O)C1=O (single isomer, unassigned) [Example 28]",0.5 to 1 µg/mL,–,0.25 µg/mL,32 to 64 µg/mL,–,32 to 64 µg/mL,32 to 64 µg/mL,32 to 64 µg/mL,–,2 to 4 µg/mL,2 to 4 µg/mL,32 to 64 µg/mL,0.5 to 1 µg/mL,8 to 16 µg/mL,2 to 4 µg/mL
"O=C(NC(C(=O)N[C@H]1Cc2ccc(F)c(C(=O)O)c2OB1O)c1ncc(O)cc1F)c1ccc(O)c(O)c1Cl (stereo partly drawn) [Example 8, (3R)-3-(2-(2-chloro-3,4-dihydroxybenzamido)-2-(3-fluoro-5-hydroxypyridin-2-yl)acetamido)-7-fluoro-2-hydroxy-3,4-dihydro-2H-benzo[e][1,2]oxaborinine-8-carboxylic acid]",2 to 4 µg/mL,2 to 4 µg/mL,0.25 µg/mL,32 to 64 µg/mL,32 to 64 µg/mL,32 to 64 µg/mL,2 to 4 µg/mL,32 to 64 µg/mL,0.5 to 1 µg/mL,0.25 µg/mL,2 to 4 µg/mL,32 to 64 µg/mL,–,–,–
